Measured values: publication PMC10203128, “Structures of human SGLT in the occluded state reveal conformational changes during sugar transport” (Nature Communications, 2023)

Columns and labels:
hSGLT2 = target: T1, hSGLT2 (Homo sapiens, UniProt P31639); experiment: cryo-EM structure of the complex at […] Å ([…] AMG); type: binding
T1 construct: gene SLC5A2; hSGLT2GFP-MAP17nb, in lipid nanodisc; with MAP17
T1 sequence (P31639 1-672): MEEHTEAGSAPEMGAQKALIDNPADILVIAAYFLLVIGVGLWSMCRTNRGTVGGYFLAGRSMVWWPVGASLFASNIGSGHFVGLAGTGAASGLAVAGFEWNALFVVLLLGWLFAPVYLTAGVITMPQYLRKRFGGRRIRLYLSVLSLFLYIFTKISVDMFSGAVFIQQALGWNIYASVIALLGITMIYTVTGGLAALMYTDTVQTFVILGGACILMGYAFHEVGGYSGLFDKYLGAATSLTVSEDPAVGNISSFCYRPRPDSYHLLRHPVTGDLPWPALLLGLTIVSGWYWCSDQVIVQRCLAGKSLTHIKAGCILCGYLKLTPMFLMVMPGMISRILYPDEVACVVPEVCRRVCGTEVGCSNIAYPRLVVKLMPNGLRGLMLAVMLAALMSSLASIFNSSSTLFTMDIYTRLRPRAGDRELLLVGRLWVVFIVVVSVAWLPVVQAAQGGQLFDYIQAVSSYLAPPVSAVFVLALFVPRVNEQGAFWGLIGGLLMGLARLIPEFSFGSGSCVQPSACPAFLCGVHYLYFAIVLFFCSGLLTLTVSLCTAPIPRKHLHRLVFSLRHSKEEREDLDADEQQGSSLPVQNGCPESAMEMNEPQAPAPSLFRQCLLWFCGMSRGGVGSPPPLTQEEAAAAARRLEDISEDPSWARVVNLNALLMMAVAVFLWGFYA
T1 sequence (Q13113 1-114 partner): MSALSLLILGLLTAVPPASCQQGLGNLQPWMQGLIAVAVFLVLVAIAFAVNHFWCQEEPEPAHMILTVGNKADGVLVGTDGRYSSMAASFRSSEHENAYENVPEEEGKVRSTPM

hSGLT1 = target: T2, hSGLT1 (Homo sapiens, UniProt P13866); experiment: cryo-EM structure of the complex at […] Å; IC50 from inhibition of […]-NBD-glucose uptake in cells; type: cell-based
T2 construct: gene SLC5A1; hSGLT1GFP-MAP17nb (three-joint-tethering construct), in lipid nanodisc; with MAP17
T2 sequence (P13866 1-664): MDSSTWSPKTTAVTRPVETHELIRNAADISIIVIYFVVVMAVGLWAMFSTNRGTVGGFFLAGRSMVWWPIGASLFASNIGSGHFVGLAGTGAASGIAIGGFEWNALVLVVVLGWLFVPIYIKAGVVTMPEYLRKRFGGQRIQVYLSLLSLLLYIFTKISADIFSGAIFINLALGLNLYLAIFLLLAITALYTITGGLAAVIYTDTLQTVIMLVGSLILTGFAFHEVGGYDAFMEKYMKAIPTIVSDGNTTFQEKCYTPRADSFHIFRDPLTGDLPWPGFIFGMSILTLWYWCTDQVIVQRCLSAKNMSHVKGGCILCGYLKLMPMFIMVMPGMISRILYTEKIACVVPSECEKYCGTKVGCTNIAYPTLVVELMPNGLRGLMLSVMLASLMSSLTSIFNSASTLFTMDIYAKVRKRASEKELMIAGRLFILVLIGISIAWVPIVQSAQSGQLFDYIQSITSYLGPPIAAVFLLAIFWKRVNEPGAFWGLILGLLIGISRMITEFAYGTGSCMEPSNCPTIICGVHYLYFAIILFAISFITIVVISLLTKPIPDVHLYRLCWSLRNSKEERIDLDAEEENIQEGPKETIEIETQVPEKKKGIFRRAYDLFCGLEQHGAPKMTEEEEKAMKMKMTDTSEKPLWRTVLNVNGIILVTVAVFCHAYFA
T2 sequence (Q13113 1-114 partner): T1 sequence (Q13113 1-114 partner)

`CO[C@H]1O[C@H](CO)C(O)[C@H](O)[C@H]1O` (stereo in doubt) [AMG, methyl alpha-D-galactopyranoside] was tested, and the “cryo-EM structure of the complex at 3.33 Å (100 mM AMG)” value (hSGLT2) was “We observed that AMG is bound in an occluded substrate-binding site”.

With `OC[C@H]1OC(O)[C@H](O)[C@@H](O)[C@@H]1F` (stereo partly drawn) [4D4FDG, 4-deoxy-4-fluoro-D-glucose] the IC50 (hSGLT1) was about 70 µM.
